Assay results published in patent publication US20100075894A1, “REDUCING ER STRESS IN THE TREATMENT OF OBESITY AND DIABETES” (HARVARD UNIVERSITY, priority 2004, published 2010).

System: IRE-1α^−/− and wild type (WT) fibroblasts
Assay: tunicamycin in IRE-1α+/+ and IRE-1α−/− fibroblasts
Type: cell-based, mouse
Excerpt: JNK activity was examined at indicated times following treatment with tunicamycin in IRE1a+/+ and IRE-1a−/− fibroblasts using an […] kinase assay and recombinant c-jun as substrate. JNK activity and total JNK levels (a). Phosphorylation of IRS-1 at ser307 residue in IRE1a+/+ and IRE-1a−/− fibroblasts following treatment with tunicamycin following IRS-1 immunoprecipitation (IP) and immunoblotting (IB) with an IRS-1 phosphoserine 307-specific antibody (b). Insulin (ins)-stimulated IRS-1 tyrosine phosphorylation and total IRS-1 in levels following treatment of IRE1a+/+ and IRE-1a−/− fibroblasts with tunicamycin.
(A) ER stress was induced in Fao liver cells by a 3-hour treatment with 5 μg/ml tunicamycin (Tun). Cells were subsequently stimulated with insulin (Ins). IRS-1 tyrosine and serine (Ser307) phosphorylation, Akt phosphorylation (Ser473), insulin receptor (IR) tyrosine phosphorylation, and their total protein levels were examined using either immunoprecipitation (IP) followed by immunoblotting (IB) or direct immunoblotting. (B) Quantitation of IRS-1 (tyrosine and Ser307), Akt (Ser473), and IR (tyrosine) phosphorylation under the experimental conditions described in (A) with normalization to protein levels for each molecule. (C) Inhibition of ER stress-induced (300 nM thapsigargin for 4 hours) Ser307 phosphorylation of IRS-1 by JNK-1 inhibitor, SP600125 (JNKi, 25 μM), (D) Quantitation of IRS-1 Ser307 phosphorylation under conditions described in (C). (E) Reversal of ER stress-induced inhibition of insulin-stimulated tyrosine phosphorylation (pY) of IRS-1 by a JNK inhibitor. (F) Quantitation of insulin-induced IRS-1 tyrosine phosphorylation levels described in (E). (G) JNK activity, Ser307 phosphorylation of IRS-1, and total IRS-1 levels at indicated times following tunicamycin treatment (Tun, 10 μg/ml for 1 hour) in IRE-1α^+/+ and IRE-1α^−/− fibroblasts. (H) Insulin-stimulated IRS-1 tyrosine phosphorylation and total IRS-1 levels following tunicamycin treatment (Tun, 10 μg/ml for 1 hour) in IRE-1α^+/+ and IRE-1α^−/− fibroblasts. […] All graphs show mean±SEM from at least 2 independent experiments and statistical significance from the controls is indicated by * with p<0.005.
In the presence of ER stress, increased phosphorylation of inositol requiring kinase-1α (IRE-1α) leads to recruitment of TNF-α receptor-associated factor 2 (TRAF2) protein and activates JNK (Urano et al., Science 287:664 (2000); incorporated herein by reference). To address whether ER stress-induced insulin resistance is dependent on intact IRE-1α, we measured JNK activation, IRS-1 serine phosphorylation, and insulin receptor signaling upon exposure of IRE-1α^−/− and wild type (WT) fibroblasts to tunicamycin. […]

tunicamycin
insulin-stimulated tyrosine phosphorylation of IRS-1 (IRE-1α−/− cells): no such effect was detected | insulin-stimulated tyrosine phosphorylation of IRS-1 (WT cells): inhibited | JNK activation (WT fibroblasts): strong activation of JNK | phosphorylation of IRS-1 at Ser307 (WT fibroblasts): stimulated
